According to US8673942B2, “Fused ring compounds and use thereof” (Takeda Pharmaceutical Company Limited, priority 2008, dated 2014):

**Q.** For `COCc1ccc(Oc2cc(OC)c3[nH]c(C4=NCC(CC(N)=O)S4)cc3c2)cn1` (stereo not drawn) [Example 49, 2-[2-(7-Methoxy-5-{[6-(methoxymethyl)pyridin-3-yl]oxy}-1H-indol-2-yl)-4,5-dihydro-1,3-thiazol-5-yl]acetamide], which melting point is on record?
**A.** 135 to 136 °C

**Q.** Which melting point does the source give for `CNC(=O)CC1CN=C(c2cc3cc(Oc4ccc(S(C)(=O)=O)nc4)c(F)c(OCCOC)c3[nH]2)S1` (stereo not drawn) [Example 92, 2-{2-[6-Fluoro-7-(2-methoxyethoxy)-5-{[6-(methylsulfonyl)pyridin-3-yl]oxy}-1H-indol-2-yl]-4,5-dihydro-1,3-thiazol-5-yl}-N-methylacetamide] here?
**A.** 151 to 152 °C

**Q.** For `CS(=O)(=O)c1ccc(Oc2cc(OCc3ccccc3)c3[nH]c(-c4nnc(CO)s4)cc3c2)cc1` [Example 21, (5-{7-(Benzyloxy)-5-[4-(methylsulfonyl)phenoxy]-1H-indol-2-yl}-1,3,4-thiadiazol-2-yl)methanol], which melting point is on record?
**A.** 159 to 160 °C

**Q.** Which melting point does the source give for `CS(=O)(=O)c1ccc(Oc2cc(OCc3cccc(Cl)n3)c3[nH]c(C4=NCC(CCO)S4)cc3c2)cc1` (stereo not drawn) [Example 6, 2-(2-{7-[(6-Chloropyridin-2-yl)methoxy]-5-[4-(methylsulfonyl)phenoxy]-1H-indol-2-yl}-4,5-dihydro-1,3-thiazol-5-yl)ethanol] here?
**A.** 93 to 94 °C

**Q.** With `COCC(COC)Oc1cc(Oc2ccc(S(C)(=O)=O)nc2)cc2cc(C3=NCC(CCO)S3)[nH]c12` (stereo not drawn) [Example 37, 2-[2-(7-[2-Methoxy-1-(methoxymethyl)ethoxy]-5-{[6-(methylsulfonyl)pyridin-3-yl]oxy}-1H-indol-2-yl)-4,5-dihydro-1,3-thiazol-5-yl]ethanol] as the compound, how does the melting point read?
**A.** 69 to 71 °C

**Q.** For `CCNC(=O)CC1CN=C(c2cc3cc(Oc4ccc(COC)nc4)cc(OC)c3[nH]2)S1` (stereo not drawn) [Example 51, N-Ethyl-2-[2-(7-methoxy-5-{[6-(methoxymethyl)pyridin-3-yl]oxy}-1H-indol-2-yl)-4,5-dihydro-1,3-thiazol-5-yl]acetamide], which melting point is on record?
**A.** 130 to 132 °C

**Q.** For `COCC(C)Oc1cc(Oc2ccc(S(C)(=O)=O)cc2)cc2cc(C3=NCC(CC(C)(C)O)S3)[nH]c12` (stereo not drawn) [Example 60, 1-(2-{7-(2-Methoxy-1-methylethoxy)-5-[4-(methylsulfonyl)phenoxy]-1H-indol-2-yl}-4,5-dihydro-1,3-thiazol-5-yl)-2-methylpropan-2-ol], which melting point is on record?
**A.** 112 to 113 °C

**Q.** With `CS(=O)(=O)c1ccc(Oc2cc(OCc3ccccc3)c3[nH]c(-c4ncc(CO)s4)cc3c2)cc1` [Example 23, (2-{7-(Benzyloxy)-5-[4-(methylsulfonyl)phenoxy]-1H-indol-2-yl}-1,3-thiazol-5-yl)methanol] as the compound, how does the melting point read?
**A.** 125 to 126 °C

**Q.** Which melting point does the source give for `CCOC(=O)c1nnc(-c2cc3cc(Oc4ccc(S(C)(=O)=O)cc4)cc(OCc4ccccc4)c3[nH]2)s1` [Example 20, Ethyl 5-{7-(benzyloxy)-5-[4-(methylsulfonyl)phenoxy]-1H-indol-2-yl}-1,3,4-thiadiazole-2-carboxylate] here?
**A.** 194 to 195 °C

**Q.** Which melting point does the source give for `CNC(=O)CC1CN=C(c2cc3cc(Oc4ccc(S(C)(=O)=O)cn4)cc(OC(COC)COC)c3[nH]2)S1` (stereo not drawn) [Example 46, 2-[2-(7-[2-Methoxy-1-(methoxymethyl)ethoxy]-5-{[5-(methylsulfonyl)pyridin-2-yl]oxy}-1H-indol-2-yl)-4,5-dihydro-1,3-thiazol-5-yl]-N-methylacetamide] here?
**A.** 123 to 125 °C

**Q.** Which melting point does the source give for `CCOc1cc(Oc2ccc(S(C)(=O)=O)nc2)cc2cc(C3=NCC(CC(=O)O)S3)[nH]c12` (stereo not drawn) [Example 96, [2-(7-Ethoxy-5-{[6-(methylsulfonyl)pyridin-3-yl]oxy}-1H-indol-2-yl)-4,5-dihydro-1,3-thiazol-5-yl]acetic acid] here?
**A.** 208 to 210 °C

**Q.** For `COc1cc(Oc2ccc(S(C)(=O)=O)cc2)cc2cc(C3=NCC(CC(=O)O)S3)[nH]c12` (stereo not drawn) [Example 102, (2-{7-Methoxy-5-[4-(methylsulfonyl)phenoxy]-1H-indol-2-yl}-4,5-dihydro-1,3-thiazol-5-yl)acetic acid], which melting point is on record?
**A.** 144 to 145 °C

**Q.** For `CNC(=O)CC1CN=C(c2cc3cc(Oc4ccc(S(C)(=O)=O)cc4)cc(OC)c3[nH]2)S1` (stereo not drawn) [Example 103, 2-(2-{7-Methoxy-5-[4-(methylsulfonyl)phenoxy]-1H-indol-2-yl}-4,5-dihydro-1,3-thiazol-5-yl)-N-methylacetamide], which melting point is on record?
**A.** 125 to 126 °C

**Q.** Which melting point does the source give for `CCOc1cc(Oc2ccc(S(C)(=O)=O)nc2)cc2cc(C3=NCC(CC(=O)NC)S3)[nH]c12` (stereo not drawn) [Example 97, 2-[2-(7-Ethoxy-5-{[6-(methylsulfonyl)pyridin-3-yl]oxy}-1H-indol-2-yl)-4,5-dihydro-1,3-thiazol-5-yl]-N-methylacetamide] here?
**A.** 233 to 235 °C

**Q.** Which melting point does the source give for `CC(C)Oc1cc(Oc2ccc(S(C)(=O)=O)cn2)cc2cc(C3=NCC(CC(N)=O)S3)[nH]c12` (stereo not drawn) [Example 67, 2-{2-[7-(1-Methylethoxy)-5-{[5-(methylsulfonyl)pyridin-2-yl]oxy}-1H-indol-2-yl]-4,5-dihydro-1,3-thiazol-5-yl}acetamide] here?
**A.** 212 to 213 °C

**Q.** For `COc1cc(Oc2ccc(S(C)(=O)=O)cc2)cc2cc(C3=NCC(CC(N)=O)S3)[nH]c12` (stereo not drawn) [Example 104, 2-(2-{7-Methoxy-5-[4-(methylsulfonyl)phenoxy]-1H-indol-2-yl}-4,5-dihydro-1,3-thiazol-5-yl)acetamide], which melting point is on record?
**A.** 169 to 170 °C

**Q.** Which melting point does the source give for `CNC(=O)CC1CN=C(c2cc3cc(Oc4ccc(S(C)(=O)=O)nc4)cc(OC(COC)COC)c3[nH]2)S1` (stereo not drawn) [Example 36, 2-[2-(7-[2-Methoxy-1-(methoxymethyl)ethoxy]-5-{[6-(methylsulfonyl)pyridin-3-yl]oxy}-1H-indol-2-yl)-4,5-dihydro-1,3-thiazol-5-yl]-N-methylacetamide] here?
**A.** 149 to 151 °C

**Q.** With `CC(C)Oc1cc(Oc2ccc(S(C)(=O)=O)cn2)cc2cc(C3=NCC(CC(C)(C)O)S3)[nH]c12` (stereo not drawn) [Example 63, 2-Methyl-1-{2-[7-(1-methylethoxy)-5-{[5-(methylsulfonyl)pyridin-2-yl]oxy}-1H-indol-2-yl]-4,5-dihydro-1,3-thiazol-5-yl}propan-2-ol] as the compound, how does the melting point read?
**A.** 151 to 153 °C

**Q.** Which melting point does the source give for `COCCOc1c(F)c(Oc2ccc(S(C)(=O)=O)nc2)cc2cc(C3=NCC(CCO)S3)[nH]c12` (stereo not drawn) [Example 90, 2-{2-[6-Fluoro-7-(2-methoxyethoxy)-5-{[6-(methylsulfonyl)pyridin-3-yl]oxy}-1H-indol-2-yl]-4,5-dihydro-1,3-thiazol-5-yl}ethanol] here?
**A.** 160 to 161 °C

**Q.** For `CS(=O)(=O)c1ccc(Oc2cc(OCc3ccccc3)c3[nH]c(C4=NCC(CCO)S4)cc3c2)cc1` (stereo not drawn) [Example 2, 2-(2-{7-(Benzyloxy)-5-[4-(methylsulfonyl)phenoxy]-1H-indol-2-yl}-4,5-dihydro-1,3-thiazol-5-yl)ethanol], which melting point is on record?
**A.** 97 to 98 °C

**Q.** Which melting point does the source give for `CCOc1cc(Oc2ccc(S(C)(=O)=O)nc2)cc2cc(C3=NCC(CCO)S3)[nH]c12` (stereo not drawn) [Example 95, 2-[2-(7-Ethoxy-5-{[6-(methylsulfonyl)pyridin-3-yl]oxy}-1H-indol-2-yl)-4,5-dihydro-1,3-thiazol-5-yl]ethanol] here?
**A.** 147 to 148 °C

**Q.** With `COCc1ccc(Oc2cc(OC(C)C)c3[nH]c(C4=NCC(CC(=O)NC5CC5)S4)cc3c2)cn1` (stereo not drawn) [Example 72, N-Cyclopropyl-2-{2-[5-{[6-(methoxymethyl)pyridin-3-yl]oxy}-7-(1-methylethoxy)-1H-indol-2-yl]-4,5-dihydro-1,3-thiazol-5-yl}acetamide] as the compound, how does the melting point read?
**A.** 100 to 101 °C

**Q.** Which melting point does the source give for `COc1cc(Oc2ccc(S(C)(=O)=O)nc2)cc2cc(C3=NCC(CC(=O)NCC(C)(C)O)S3)[nH]c12` (stereo not drawn) [Example 73, N-(2-Hydroxy-2-methylpropyl)-2-[2-(7-methoxy-5-{[6-(methylsulfonyl)pyridin-3-yl]oxy}-1H-indol-2-yl)-4,5-dihydro-1,3-thiazol-5-yl]acetamide] here?
**A.** 200 to 201 °C

**Q.** Which melting point does the source give for `COCC(COC)Oc1cc(Oc2ccc(S(C)(=O)=O)nc2)cc2cc(C3=NCC(CC(N)=O)S3)[nH]c12` (stereo not drawn) [Example 35, 2-[2-(7-[2-Methoxy-1-(methoxymethyl)ethoxy]-5-{[6-(methylsulfonyl)pyridin-3-yl]oxy}-1H-indol-2-yl)-4,5-dihydro-1,3-thiazol-5-yl]acetamide] here?
**A.** 172 to 173 °C

**Q.** With `CNC(=O)CC1CN=C(c2cc3cc(Oc4ccc(S(C)(=O)=O)cn4)cc(OC)c3[nH]2)S1` (stereo not drawn) [Example 42, 2-[2-(7-Methoxy-5-{[5-(methylsulfonyl)pyridin-2-yl]oxy}-1H-indol-2-yl)-4,5-dihydro-1,3-thiazol-5-yl]-N-methylacetamide] as the compound, how does the melting point read?
**A.** 207 to 209 °C

**Q.** Which melting point does the source give for `CNC(=O)CC1CN=C(c2cc3cc(Oc4ccc(S(C)(=O)=O)nc4)cc(OC(C)COC)c3[nH]2)S1` (stereo not drawn) [Example 87, 2-{2-[7-(2-Methoxy-1-methylethoxy)-5-{[6-(methylsulfonyl)pyridin-3-yl]oxy}-1H-indol-2-yl]-4,5-dihydro-1,3-thiazol-5-yl}-N-methylacetamide] here?
**A.** 107 to 109 °C

**Q.** With `CCNC(=O)CC1CN=C(c2cc3cc(Oc4ccc(S(C)(=O)=O)nc4)cc(OC)c3[nH]2)S1` (stereo not drawn) [Example 77, N-Ethyl-2-[2-(7-methoxy-5-{[6-(methylsulfonyl)pyridin-3-yl]oxy}-1H-indol-2-yl)-4,5-dihydro-1,3-thiazol-5-yl]acetamide] as the compound, how does the melting point read?
**A.** 236 to 237 °C

**Q.** Which melting point does the source give for `CNC(=O)CC1CN=C(c2cc3cc(Oc4ccc(COC)nc4)cc(OC)c3[nH]2)S1` (stereo not drawn) [Example 50, 2-[2-(7-Methoxy-5-{[6-(methoxymethyl)pyridin-3-yl]oxy}-1H-indol-2-yl)-4,5-dihydro-1,3-thiazol-5-yl]-N-methylacetamide] here?
**A.** 102 to 104 °C

**Q.** For `CNC(=O)CC1CN=C(c2cc3cc(Oc4ccc(S(C)(=O)=O)cn4)cc(OC(C)C)c3[nH]2)S1` (stereo not drawn) [Example 68, N-Methyl-2-{2-[7-(1-methylethoxy)-5-{[5-(methylsulfonyl)pyridin-2-yl]oxy}-1H-indol-2-yl]-4,5-dihydro-1,3-thiazol-5-yl}acetamide], which melting point is on record?
**A.** 190 to 192 °C

**Q.** For `COc1cc(Oc2ccc(S(C)(=O)=O)nc2)cc2cc(C3=NCC(CC(N)=O)S3)[nH]c12` (stereo not drawn) [Example 29, 2-[2-(7-Methoxy-5-{[6-(methylsulfonyl)pyridin-3-yl]oxy}-1H-indol-2-yl)-4,5-dihydro-1,3-thiazol-5-yl]acetamide], which melting point is on record?
**A.** 225 to 227 °C
